Where two headings read alike, the source gives them in different places.
Legend:
[1] = test system: common spider mite (Tetranychus urticae); assay: Tetranychus test (OP resistant/dip treatment); format: in vivo; settings: for mortality at 0.0001 %: Tetranychus urticae, 312 h, read-out: destruction in %
Description: Tetranychus test (OP resistant/dip treatment)
Solvent: 3 parts by weight of dimethylformamide
(§1) Emulsifier: 1 part by weight of alkylaryl polyglycol ether
To produce a suitable preparation of active compound, 1 part by weight of active compound is mixed with the stated amount of solvent and the stated amount of emulsifier, and the concentrate is diluted with emulsifier-containing water to the desired concentrations.
Bean plants (Phaseolus vulgaris) which are heavily infested by all stages of the common spider mite (Tetranychus urticae) are dipped into the active compound preparation of the desired concentration.
After the desired period of time, the activity in % is determined. 100% means that all the spider mites have been killed; 0% means that none of the spider mites have been killed.

[2] = test system: peach aphids (Myzus persicae); assay: Myzus test; format: in vivo; settings: active compound concentration 0.1%, after 6 days; for mortality at 0.1 %: Myzus persicae, 144 h, read-out: destruction in %
Description: (§2) Solvent: 7 parts by weight of dimethylformamide
as §1
(§3) To produce a suitable preparation of active compound, 1 part by weight of active compound is mixed with the stated amount of solvent and the stated amount of emulsifier, and the concentrate is diluted with water to the desired concentration.
Seedlings of the broad bean (Vicia faba) which are infested with peach aphids (Myzus persicae) are dipped into the active compound preparation of the desired concentration and placed into a plastic box.
After the desired period of time, the destruction in % is determined. 100% means that all the aphids have been killed; 0% means that none of the aphids have been killed.

[3] = test system: mustard beetle larvae (Phaedon cochleariae); assay: Phaedon larvae test; format: in vivo; settings: active compound concentration 0.01%, after 7 days; for mortality at 0.01 %: Phaedon cochleariae, 168 h, read-out: destruction in %
Description: as §2, §1
(§4) To produce a suitable preparation of active compound, I part by weight of active compound is mixed with the stated amount of solvent and the stated amount of emulsifier, and the concentrate is diluted with water to the desired concentration.
Cabbage leaves (Brassica oleracea) are treated by being dipped into the active compound preparation of the desired concentration and are infested with mustard beetle larvae (Phaedon cochleariae), while the leaves are still moist.
After the desired period of time, the destruction in % is determined. 100% means that all the beetle larvae have been killed; 0% means that none of the beetle larvae have been killed.

[4] = test system: green rice leaf hopper (Nephotettix cincticeps); assay: Nephotettix test; format: in vivo; settings: active compound concentration 0.1%, after 6 days; for mortality at 0.1 %: Nephotettix cincticeps, 144 h, read-out: destruction in %
Description: as §2, §1, §3
Rice seedlings (Oryza sativa) are treated by being dipped into the active compound preparation of the desired concentration and are infested with the green rice leaf hopper (Nephotettix cincticeps), while the seedlings are still moist.
After the desired period of time, the destruction in % is determined. 100% means that all the leaf hoppers have been killed; 0% means that none of the leaf hoppers have been killed.

[5] = test system: caterpillars of the owlet moth (Spodoptera frugiperda); assay: Spodoptera frugiperda test; format: in vivo; settings: active compound concentration 0.1%, after 7 days; for mortality at 0.1 %: Spodoptera frugiperda, 168 h, read-out: destruction in %
Description: Spodoptera frugiperda test
as §2, §1, §4
Cabbage leaves (Brassica oleracea) are treated by being dipped into the active compound preparation of the desired concentration and are infested with caterpillars of the owlet moth (Spodoptera frugiperda), while the leaves are still moist.
After the desired period of time, the destruction in % is determined. 100% means that all the caterpillars have been killed; 0% means that none of the caterpillars have been killed.

[6] = logp: n-octanol/water partition coefficient by reversed phase HPLC; format: physicochemical; settings: h2o/ch3cn, read-out: logp (logarithm to base ten of the n-octanol/water partition coefficient)
Description: *) logp: Logarithm to base ten of the n-octanol/water partition coefficient, determined by reversed phase HPLC analysis using H2 O/CH3 CN.
*^) logp: Logarithm to base ten of the noctanol/water partition
coefficient, determined by reversed phase HPLC analysis using H2

[7] = A isomer (possible geometric isomer)
[8] = B isomer (possible geometric isomer)

## Oc1ccc(-c2ccc(C3COC(c4c(F)cccc4F)=N3)cc2)cc1 (stereo not shown) [(A), reference compound]
[1]; active compound concentration 0.0001%, after 13 days
  destruction (in words): no destruction
[2]
  activity (in words): no activity
[3]
  activity (in words): no activity

## COc1ccc(-c2ccc(C3COC(c4c(F)cccc4F)=N3)cc2)cc1 (stereo not shown) [(B), reference compound]
[4]
  activity (in words): no activity
[3]
  activity (in words): no activity
[5]
  activity (in words): no activity

## CC(C)Oc1ccc(-c2ccc(C3COC(c4c(F)cccc4F)=N3)cc2)cc1 (stereo not shown) [(C)]
[4]
  activity (in words): no activity

## CC(C)COc1ccc(-c2ccc(C3COC(c4c(F)cccc4F)=N3)cc2)cc1 (stereo not shown) [(D)]
[4]
  activity (in words): no activity

## CCCCOc1ccc(-c2ccc(C3COC(c4c(F)cccc4F)=N3)cc2)cc1 (stereo not shown) [(E)]
[4]
  activity (in words): no activity

## CCCOc1ccc(-c2ccc(C3COC(c4c(F)cccc4F)=N3)cc2)cc1 (stereo not shown) [(F), reference compound]
[1]
  mortality at 0.0001 %: 45%

## O=C1CCC(c2ccc(C3COC(c4c(F)cccc4F)=N3)cc2)CC1 (stereo not shown) [Example 1, 2-(2,6-difluorophenyl)-4-[4-(4-oxo-cyclohexyl)-phenyl]-1,3-oxazoline]
[6]
  chromatographic logP: 2.28
[4]
  mortality at 0.1 %: 90%

## CC(C)ON=C1CCC(c2ccc(C3COC(c4c(F)cccc4F)=N3)cc2)CC1 (stereo not shown) [Example 4]
[6]
  chromatographic logP: 4.5
[1]
  mortality at 0.0001 %: 98%
[2]
  mortality at 0.1 %: 100%
[3]
  mortality at 0.01 %: 90%
[5]
  mortality at 0.1 %: 100%

## COC1(OC)CCC(c2ccc(C3COC(c4c(F)cccc4F)=N3)cc2)CC1 (stereo not shown) [Example 8]
[6]
  chromatographic logP: 3.8
[3]
  mortality at 0.01 %: 90%

## CCC(C)ON=C1CCC(c2ccc(C3COC(c4c(F)cccc4F)=N3)cc2)CC1 (stereo not shown) [Example 9]
[6]
  chromatographic logP: 4.96
[1]
  mortality at 0.0001 %: 98%
[3]
  mortality at 0.01 %: 100%
[5]
  mortality at 0.1 %: 100%

## Fc1cccc(F)c1C1=NC(c2ccc(C3CCC4(CC3)OCC(c3cccc(Cl)c3)O4)cc2)CO1 (stereo not shown) [Example 10]
[6]
  chromatographic logP: 5.22
[1]
  mortality at 0.0001 %: 98%
[3]
  mortality at 0.01 %: 100%
[5]
  mortality at 0.1 %: 100%

## Fc1cccc(F)c1C1=NC(c2ccc(C3CCC(=NOCc4ccccc4)CC3)cc2)CO1 (stereo not shown) [Example 12]
[6]
  chromatographic logP: 4.7
[1]
  mortality at 0.0001 %: 98%

## CC1OC2(CCC(c3ccc(C4COC(c5c(F)cccc5F)=N4)cc3)CC2)OC1C (stereo not shown) [Example 13]
[6]; [7]
  chromatographic logP: 4.23
[6]; [8]
  chromatographic logP: 4.31
[4]
  mortality at 0.1 %: 80%
[1]
  mortality at 0.0001 %: 98%
[3]
  mortality at 0.01 %: 100%

## CC(C)(C)C1COC2(CCC(c3ccc(C4COC(c5c(F)cccc5F)=N4)cc3)CC2)O1 (stereo not shown) [Example 15]
[6]; [7]
  chromatographic logP: 5.41
[6]; [8]
  chromatographic logP: 5.48
[1]
  mortality at 0.0001 %: 98%
[2]
  mortality at 0.1 %: 90%
[3]
  mortality at 0.01 %: 100%

## CCCCCCCC1COC2(CCC(c3ccc(C4COC(c5c(F)cccc5F)=N4)cc3)CC2)O1 (stereo not shown) [Example 16]
[6]; [7]
  chromatographic logP: 6.25
[6]; [8]
  chromatographic logP: 6.31
[1]
  mortality at 0.0001 %: 98%
[2]
  mortality at 0.1 %: 90%

## CCCCCCCCCC1COC2(CCC(c3ccc(C4COC(c5c(F)cccc5F)=N4)cc3)CC2)O1 (stereo not shown) [Example 17]
[6]; [7]
  chromatographic logP: 7.12
[6]; [8]
  chromatographic logP: 7.2
[1]
  mortality at 0.0001 %: 98%
[2]
  mortality at 0.1 %: 90%
[3]
  mortality at 0.01 %: 100%
[5]
  mortality at 0.1 %: 100%

## CCCCOC1(OCCCC)CCC(c2ccc(C3COC(c4c(F)cccc4F)=N3)cc2)CC1 (stereo not shown) [Example 19]
[6]; [7]
  chromatographic logP: 6.77
[6]; [8]
  chromatographic logP: 6.86
[1]
  mortality at 0.0001 %: 98%
[5]
  mortality at 0.1 %: 100%

## Fc1cccc(F)c1C1=NC(c2ccc(C3CCC(=NOCc4ccc(C(F)(F)F)cc4Cl)CC3)cc2)CO1 (stereo not shown) [Example 20]
[6]
  chromatographic logP: 5.91
[1]
  mortality at 0.0001 %: 98%
[3]
  mortality at 0.01 %: 100%

## Fc1cccc(F)c1C1=NC(c2ccc(C3CCC(=NOCc4ccc(Cl)cc4Cl)CC3)cc2)CO1 (stereo not shown) [Example 21]
[6]
  chromatographic logP: 5.92
[1]
  mortality at 0.0001 %: 98%
[2]
  mortality at 0.1 %: 80%

## Fc1cccc(F)c1C1=NC(c2ccc(C3CCC(=NOCc4ccccc4Cl)CC3)cc2)CO1 (stereo not shown) [Example 22]
[6]
  chromatographic logP: 5.21
[1]
  mortality at 0.0001 %: 98%

## CC(C)(C)c1ccc(C2COC3(CCC(c4ccc(C5COC(c6c(F)cccc6F)=N5)cc4)CC3)O2)cc1 (stereo not shown) [Example 23]
[6]
  chromatographic logP: 6.16
[1]
  mortality at 0.0001 %: 98%

## Fc1cccc(F)c1C1=NC(c2ccc(C3CCC4(CC3)OCC(c3ccccc3Cl)O4)cc2)CO1 (stereo not shown) [Example 24]
[6]
  chromatographic logP: 5.6
[1]
  mortality at 0.0001 %: 98%

## Fc1cccc(F)c1C1=NC(c2ccc(C3CCC4(CC3)OCC(c3cccc(Cl)c3Cl)O4)cc2)CO1 (stereo not shown) [Example 25]
[6]
  chromatographic logP: 6.07
[1]
  mortality at 0.0001 %: 98%

## Fc1cccc(F)c1C1=NC(c2ccc(C3CCC4(CC3)OCC(COc3ccc(Cl)cc3)O4)cc2)CO1 (stereo not shown) [Example 46]
[6]; [7]
  chromatographic logP: 5.1
[6]; [8]
  chromatographic logP: 5.16

## CC(C)C1(c2ccc(Cl)cc2)COC2(CCC(c3ccc(C4COC(c5c(F)cccc5F)=N4)cc3)CC2)OC1 (stereo not shown) [Example 47]
[6]
  chromatographic logP: 6.15

## C=CCOCC1COC2(CCC(c3ccc(C4COC(c5c(F)cccc5F)=N4)cc3)CC2)O1 (stereo not shown) [Example 48]
[6]
  chromatographic logP: 4.21

## COCC1COC2(CCC(c3ccc(C4COC(c5c(F)cccc5F)=N4)cc3)CC2)O1 (stereo not shown) [Example 49]
[6]; [7]
  chromatographic logP: 3.57
[6]; [8]
  chromatographic logP: 3.6

## CC1COC2(CCC(c3ccc(C4COC(c5c(F)cccc5F)=N4)cc3)CC2)O1 (stereo not shown) [Example 50]
[6]
  chromatographic logP: 3.89

## CCCCOCC1COC2(CCC(c3ccc(C4COC(c5c(F)cccc5F)=N4)cc3)CC2)O1 (stereo not shown) [Example 51]
[6]; [7]
  chromatographic logP: 4.97
[6]; [8]
  chromatographic logP: 5

## CC1COC2(CCC(c3ccc(C4COC(c5c(F)cccc5F)=N4)cc3)CC2)OC1 (stereo not shown) [Example 52]
[6]
  chromatographic logP: 3.99

## CC=CC1OC2(CCC(c3ccc(C4COC(c5c(F)cccc5F)=N4)cc3)CC2)OC1C=CC (stereo not shown) [Example 53]
[6]; [7]
  chromatographic logP: 5.23
[6]; [8]
  chromatographic logP: 5.37

## C=CCCCCC1COC2(CCC(c3ccc(C4COC(c5c(F)cccc5F)=N4)cc3)CC2)O1 (stereo not shown) [Example 54]
[6]; [7]
  chromatographic logP: 5.65
[6]; [8]
  chromatographic logP: 5.7

## C=CCON=C1CCC(c2ccc(C3COC(c4c(F)cccc4F)=N3)cc2)CC1 (stereo not shown) [Example 55]
[6]
  chromatographic logP: 4.16

## CON=C1CCC(c2ccc(C3COC(c4c(F)cccc4F)=N3)cc2)CC1 (stereo not shown) [Example 56]
[6]
  chromatographic logP: 3.6

## O=C1CCC(c2ccc(C3COC(c4c(F)cccc4Cl)=N3)cc2)CC1 (stereo not shown) [Example 57]
[6]
  chromatographic logP: 3.09

## Fc1cccc(F)c1C1=NC(c2ccc(C3CCC4(CC3)OCC(c3ccccc3)O4)cc2)CO1 (stereo not shown) [Example 58]
[6]; [7]
  chromatographic logP: 4.78
[6]; [8]
  chromatographic logP: 4.87

## Fc1cccc(F)c1C1=NC(c2ccc(C3CCC4(CC3)OCC(c3c(F)cccc3Cl)O4)cc2)CO1 (stereo not shown) [Example 59]
[6]
  chromatographic logP: 5.14

## Fc1cccc(F)c1C1=NC(c2ccc(C3CCC4(CC3)OCC(c3ccc(Cl)c(Cl)c3)O4)cc2)CO1 (stereo not shown) [Example 60]
[6]
  chromatographic logP: 5.65

Reference: patent US6015823A, “4-Cyclohexylphenyl-oxazolines and their use for controlling animal pests” (Bayer Aktiengesellschaft, priority 1996, dated 2000)
